Test results: ChEMBL document CHEMBL1201862, “PubChem BioAssay data set” (2004)
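Each compound was tested at five concentrations against cells in 96-well plates for 48 hours. GI50: concentration for 50% inhibition of growth.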 Calls of active or inactive are those of the source. Cut-off read from the data, not from the text of the source: active = GI50 up to about 1.1 µM and inactive = higher.

Tests used:
Experiment in all cases: NCI-60 cell line screen, 48 h
[1] = tested on: OVCAR-3
[2] = tested on: OVCAR-5
[3] = tested on: HOP-62
[4] = tested on: PC-3
[5] = tested on: U-251
[6] = tested on: SR
[7] = tested on: MDA-N
[8] = tested on: NCI-H23
[9] = tested on: SN12C
[10] = tested on: SF-539
[11] = tested on: Hs-578T
[12] = tested on: DU-145
[13] = tested on: M14
[14] = tested on: HT-29
[15] = tested on: COLO 205
[16] = tested on: HOP-92
[17] = tested on: UACC-257
[18] = tested on: SK-MEL-5
[19] = tested on: OVCAR-4
[20] = tested on: BT-549
[21] = tested on: MOLT-4
[22] = tested on: K562
[23] = tested on: HCT-15
[24] = tested on: UO-31
[25] = tested on: OVCAR-8
[26] = tested on: MDA-MB-231
[27] = tested on: SNB-19
[28] = tested on: SW-620
[29] = tested on: SF-268
[30] = tested on: HCT-116
[31] = tested on: NCI-H226
[32] = tested on: 786-0
[33] = tested on: LOX IMVI
[34] = tested on: HL-60
[35] = tested on: SK-MEL-28
[36] = tested on: MDA-MB-435
[37] = tested on: A549
[38] = tested on: MCF7
[39] = tested on: ACHN
[40] = tested on: EKVX
[41] = tested on: T47D
[42] = tested on: SNB-75
[43] = tested on: A498
[44] = tested on: SK-MEL-2
[45] = tested on: Malme-3M
[46] = tested on: RXF 393
[47] = tested on: IGROV-1
[48] = tested on: SF-295
[49] = tested on: CCRF-CEM
[50] = tested on: NCI-H460
[51] = tested on: KM12
[52] = tested on: SK-OV-3
[53] = tested on: UACC-62
[54] = tested on: RPMI-8226
[55] = tested on: TK-10
[56] = tested on: NCI/ADR-RES
[57] = tested on: HCC 2998
[58] = tested on: CAKI-1
[59] = tested on: NCI-H522

With CCN1C[C@]2(C)CC[C@H](OC)C34C5C[C@@H]6[C@@H](OC)C[C@@](OC)(C5[C@H]6OCc5ccccc5)C(C13)[C@H](OC(C)=O)[C@@H]42 (stereo partly drawn) the GI50 [1] was 64.3 µM (inactive), the GI50 [2] was > 100 µM (inactive) and the GI50 [3] was > 100 µM (inactive). For the same molecule, the GI50 [4] was 82.8 µM (inactive), the GI50 [5] was > 100 µM (inactive) and the GI50 [6] was > 100 µM (inactive). For the same molecule, the GI50 [7] was > 100 µM (inactive), the GI50 [8] was > 100 µM (inactive) and the GI50 [9] was > 100 µM (inactive). For the same molecule, the GI50 [10] was > 100 µM (inactive), the GI50 [11] was > 100 µM (inactive) and the GI50 [12] was > 100 µM (inactive). The GI50 [13] was 97.1 µM (inactive), the GI50 [14] was > 100 µM (inactive) and the GI50 [15] was 75.2 µM (inactive). For the same molecule, the GI50 [16] was 38.6 µM (inactive), the GI50 [17] was 45.8 µM (inactive) and the GI50 [18] was > 100 µM (inactive). For the same molecule, the GI50 [19] was > 100 µM (inactive), the GI50 [20] was > 100 µM (inactive) and the GI50 [21] was 73.6 µM (inactive). The GI50 [22] was > 100 µM (inactive), the GI50 [23] was > 100 µM and the GI50 [24] was > 100 µM (inactive). The GI50 [25] was > 100 µM (inactive), the GI50 [26] was > 100 µM (inactive) and the GI50 [27] was > 100 µM (inactive). The GI50 [28] was > 100 µM (inactive), the GI50 [29] was > 100 µM (inactive) and the GI50 [30] was > 100 µM (inactive). The GI50 [31] was > 100 µM (inactive), the GI50 [32] was > 100 µM (inactive) and the GI50 [33] was > 100 µM (inactive). The GI50 [34] was 6.95 µM (inactive), the GI50 [35] was > 100 µM (inactive) and the GI50 [36] was > 100 µM (inactive). The GI50 [37] was > 100 µM (inactive), the GI50 [38] was > 100 µM (inactive) and the GI50 [39] was > 100 µM (inactive). For the same molecule, the GI50 [40] was > 100 µM (inactive), the GI50 [41] was > 100 µM (inactive) and the GI50 [42] was 1.18 µM (inactive). For the same molecule, the GI50 [43] was > 100 µM (inactive), the GI50 [44] was > 100 µM (inactive) and the GI50 [45] was > 100 µM (inactive). The GI50 [46] was > 100 µM (inactive), the GI50 [47] was > 100 µM (inactive) and the GI50 [48] was > 100 µM (inactive). For the same molecule, the GI50 [49] was > 100 µM (inactive), the GI50 [50] was 59.8 µM (inactive) and the GI50 [51] was > 100 µM (inactive). For the same molecule, the GI50 [52] was > 100 µM (inactive), the GI50 [53] was > 100 µM (inactive) and the GI50 [54] was > 100 µM (inactive). For the same molecule, the GI50 [55] was > 100 µM (inactive) and the GI50 [56] was > 100 µM (inactive).
C/C(=N\c1cc(Cl)cc(Cl)c1)c1ccncc1 was tested, and the GI50 [1] was > 100 µM (inactive), the GI50 [2] was > 100 µM (inactive) and the GI50 [57] was > 100 µM (inactive). For the same molecule, the GI50 [3] was > 100 µM (inactive), the GI50 [58] was > 100 µM (inactive) and the GI50 [4] was > 100 µM (inactive). For the same molecule, the GI50 [5] was > 100 µM (inactive), the GI50 [59] was > 100 µM (inactive) and the GI50 [7] was > 100 µM (inactive). The GI50 [8] was > 100 µM (inactive), the GI50 [9] was > 100 µM (inactive) and the GI50 [10] was > 100 µM (inactive). The GI50 [11] was > 100 µM (inactive), the GI50 [12] was > 100 µM (inactive) and the GI50 [13] was > 100 µM (inactive). For the same molecule, the GI50 [14] was > 100 µM (inactive), the GI50 [15] was > 100 µM (inactive) and the GI50 [16] was 63.8 µM (inactive). The GI50 [17] was > 100 µM (inactive), the GI50 [18] was > 100 µM (inactive) and the GI50 [19] was > 100 µM (inactive). The GI50 [20] was > 100 µM (inactive), the GI50 [21] was > 100 µM (inactive) and the GI50 [22] was > 100 µM (inactive). The GI50 [23] was > 100 µM, the GI50 [24] was 89.7 µM (inactive) and the GI50 [25] was > 100 µM (inactive). For the same molecule, the GI50 [26] was > 100 µM (inactive), the GI50 [27] was > 100 µM (inactive) and the GI50 [28] was > 100 µM (inactive). The GI50 [29] was > 100 µM (inactive), the GI50 [30] was > 100 µM (inactive) and the GI50 [31] was > 100 µM (inactive). For the same molecule, the GI50 [32] was > 100 µM (inactive), the GI50 [33] was > 100 µM (inactive) and the GI50 [35] was > 100 µM (inactive). The GI50 [36] was > 100 µM (inactive), the GI50 [37] was > 100 µM (inactive) and the GI50 [38] was > 100 µM (inactive). For the same molecule, the GI50 [39] was > 100 µM (inactive), the GI50 [40] was > 100 µM (inactive) and the GI50 [41] was > 100 µM (inactive). For the same molecule, the GI50 [42] was > 100 µM (inactive), the GI50 [43] was > 100 µM (inactive) and the GI50 [44] was > 100 µM (inactive). For the same molecule, the GI50 [45] was > 100 µM (inactive), the GI50 [46] was > 100 µM (inactive) and the GI50 [47] was > 100 µM (inactive). The GI50 [48] was > 100 µM (inactive), the GI50 [49] was > 100 µM (inactive) and the GI50 [50] was > 100 µM (inactive). The GI50 [51] was > 100 µM (inactive), the GI50 [52] was 29.9 µM (inactive) and the GI50 [53] was 15 µM (inactive). For the same molecule, the GI50 [54] was 31 µM (inactive), the GI50 [55] was > 100 µM (inactive) and the GI50 [56] was > 100 µM (inactive).
